# Experimental data published in patent US20050197350A1, “Novel quinoline, tetrahydroquinazoline, and pyrimidine derivatives and methods of treatment related to the use thereof” (TAISHO PHARMACEUTICAL CO., LTD., priority 2003, published 2005).
# Tested on: MCH receptors
# Assay: MCH receptor activity class (method not given)
# [1] = class 1-3 by percent of control at 10^-7 M or IC50
# [2] = class by percent of control at 10^-7 M or IC50
# [3] = MCH receptor, class by percent of control at 10^-7 M or IC50
# [4] = class by percent of control at 10^−7 M or IC50
# [5] = activity class per percent of control at 10^-7 M or IC50
# [6] = MCH receptor activity class 1-3 (percent of control at 10^-7 M or IC50)
smiles,measurement,setting,value
Cc1cccc(C(=O)NC[C@H]2CC[C@@H](Nc3nccc(N(C)C)n3)CC2)c1C [compound 455],class,[1],3 (Class 3 The value of percent of control at 10^−7 M was more than 60% or the value of IC50 was more than 200 nM.)
CN(C)c1nc(N[C@H]2CC[C@@H](CNC(=O)c3c(F)ccc(F)c3Cl)CC2)nc2c1CCCC2 [compound 671],class,[2],3 (Class 3 The value of percent of control at 10^−7 M was more than 60% or the value of IC50 was more than 200 nM.)
Cc1cccc(NC(=O)N[C@H]2CC[C@@H](Nc3cc(N(C)C)c4ccccc4n3)CC2)c1C [compound 2126],class,[2],3 (Class 3 The value of percent of control at 10^−7 M was more than 60% or the value of IC50 was more than 200 nM.)
CN(C)c1ccnc(N[C@H]2CC[C@@H](NC(=O)c3ccc(Br)s3)CC2)n1 [compound 812],class,[2],3 (Class 3 The value of percent of control at 10^−7 M was more than 60% or the value of IC50 was more than 200 nM.)
Cc1ccc(CNC[C@H]2CC[C@@H](Nc3nccc(N(C)C)n3)CC2)s1 [compound 1301],class,[2],3 (Class 3 The value of percent of control at 10^−7 M was more than 60% or the value of IC50 was more than 200 nM.)
CSc1ccccc1NC(=S)N[C@H]1CC[C@@H](Nc2nc3c(c(N(C)C)n2)CCCC3)CC1 [compound 1967],class,[3],3 (Class 3 The value of percent of control at 10^−7 M was more than 60% or the value of IC50 was more than 200 nM.)
Cc1cnc(N[C@H]2CC[C@@H](CNC(=O)c3ccc4c(c3)OC(F)(F)O4)CC2)nc1N(C)C [compound 2708],class,[4],2 (Class 2: The value of percent of control at 10^−7 M was from 40% to 60% or the value of IC′50 was from 50 nM to 200 nM.)
CN(C)c1cc(NC2CCC(CNC(=O)OCc3ccccc3)CC2)nc2ccccc12 (stereo not drawn) [compound 182],class,[3],3 (Class 3 The value of percent of control at 10^−7 M was more than 60% or the value of IC50 was more than 200 nM.)
CN(C)c1nc(N[C@H]2CC[C@@H](NC(=O)C(C)(C)Oc3ccc(Cl)cc3)CC2)nc2c1CCCC2 [compound 575],class,[1],3 (Class 3 The value of percent of control at 10^−7 M was more than 60% or the value of IC50 was more than 200 nM.)
"Cc1nn(-c2ccccc2)nc1C(=O)N[C@H]1CC[C@@H](Nc2nccc(N(C)C)n2)CC1 [compound 325, N-(cis-4-{[4-(dimethylamino)pyrimidin-2-yl]amino}cyclohexyl)-5-methyl-2-phenyl-2H-1,2,3-triazole-4-carboxamide]",class,[2],1 (Class 1: The value of percent of control at 10^−7 M was less than 40% or the value of IC50 was less than 50 nM.)
CN(C)c1ccnc(N[C@H]2CC[C@@H](NC(=O)[C@H](CCCCNC(=O)c3ccccc3)NC(=O)c3ccccc3)CC2)n1 (relative stereo) [compound 843],class,[2],2 (Class 2: The value of percent of control at 10^−7 M was from 40% to 60% or the value of IC′50 was from 50 nM to 200 nM.)
CN(C)c1nc(N[C@H]2CC[C@@H](NC(=O)Nc3ccc(F)c(Cl)c3)CC2)nc2c1CCCC2 [compound 1805],class,[2],3 (Class 3 The value of percent of control at 10^−7 M was more than 60% or the value of IC50 was more than 200 nM.)
COc1ccc2[nH]c(C)c(CC(=O)NC[C@H]3CC[C@@H](Nc4nccc(N(C)C)n4)CC3)c2c1 [compound 933],class,[2],3 (Class 3 The value of percent of control at 10^−7 M was more than 60% or the value of IC50 was more than 200 nM.)
CN(C)c1cc(N[C@H]2CC[C@@H](NC(=O)c3ccc(I)cc3)CC2)nc2ccccc12 [compound 41],class,[3],3 (Class 3 The value of percent of control at 10^−7 M was more than 60% or the value of IC50 was more than 200 nM.)
"Cc1cc(N(C)C)nc(N[C@H]2CC[C@@H](NC(=O)c3ccc(Br)cc3)CC2)n1 [compound 2973, 4-bromo-N-(cis-4-{[4-(dimethylamino)-6-methylpyrimidin-2-yl]amino}cyclohexyl)benzamide]",class,[4],1 (Class 1: The value of percent of control at 10^−7 M was less than 40% or the value of IC50 was less than 50 nM.)
CN(C)c1nc(N[C@H]2CC[C@@H](NC(=S)NCc3ccccc3F)CC2)nc2c1CCCC2 [compound 2037],class,[3],3 (Class 3 The value of percent of control at 10^−7 M was more than 60% or the value of IC50 was more than 200 nM.)
CN(C)c1ccnc(N[C@H]2CC[C@@H](CNC(=O)CC3=CCCCC3)CC2)n1 [compound 943],class,[2],3 (Class 3 The value of percent of control at 10^−7 M was more than 60% or the value of IC50 was more than 200 nM.)
Cc1cc(N(C)C)nc(NC[C@H]2CC[C@@H](NC(=O)c3cccc(OC(F)(F)F)c3)CC2)n1 [compound 2741],class,[4],3 (Class 3 The value of percent of control at 10^−7 M was more than 60% or the value of IC50 was more than 200 nM.)
"CCC(Oc1ccccc1)C(=O)NC[C@H]1CC[C@@H](Nc2nccc(N(C)C)n2)CC1 (relative stereo) [compound 393, N-[(cis-4-{[4-(dimethylamino)pyrimidin-2-yl]amino}cyclohexyl)methyl]-2-phenoxybutanamide]",class,[2],2 (Class 2: The value of percent of control at 10^−7 M was from 40% to 60% or the value of IC′50 was from 50 nM to 200 nM.)
"CN(C)c1ccnc(N[C@H]2CC[C@@H](NC(=O)c3cccc(C(F)(F)F)c3)CC2)n1 [compound 334, N-(cis-4-{[4-(dimethylamino)pyrimidin-2-yl]amino}cyclohexyl)-3-(trifluoromethyl)benzamide]",class,[2],2 (Class 2: The value of percent of control at 10^−7 M was from 40% to 60% or the value of IC′50 was from 50 nM to 200 nM.)
COc1cc(CNC[C@H]2CC[C@@H](Nc3cc(N(C)C)c4ccccc4n3)CC2)cc(OC)c1 [compound 1138],class,[5],3 (Class 3 The value of percent of control at 10^−7 M was more than 60% or the value of IC50 was more than 200 nM.)
CN(C)c1ccnc(N[C@H]2CC[C@@H](CNCc3cc(Cl)cc(Br)c3O)CC2)n1 [compound 1283],class,[2],3 (Class 3 The value of percent of control at 10^−7 M was more than 60% or the value of IC50 was more than 200 nM.)
"Cc1cc(N(C)C)nc(N[C@H]2CC[C@@H](NC(=O)c3cccc(C(F)(F)F)c3)CC2)n1 [compound 2954, N-(cis-4-{[4-(dimethylamino)-6-methylpyrimidin-2-yl]amino}cyclohexyl)-3-(trifluoromethyl)benzamide]",class,[4],1 (Class 1: The value of percent of control at 10^−7 M was less than 40% or the value of IC50 was less than 50 nM.)
CN(C)c1ccc(/N=N/c2ccc(NC(=S)N[C@H]3CC[C@@H](Nc4nc5c(c(N(C)C)n4)CCCC5)CC3)cc2)cc1 [compound 2077],class,[3],3 (Class 3 The value of percent of control at 10^−7 M was more than 60% or the value of IC50 was more than 200 nM.)
"CN(C)c1cc(N[C@H]2CC[C@@H](CNC(=O)Nc3c(F)cc(Br)cc3Br)CC2)nc2ccccc12 [compound 2371, N-(2,4-dibromo-6-fluorophenyl)-N′-[(cis-4-{[4-(dimethylamino)quinolin-2-yl]amino}cyclohexyl)methyl]urea]",class,[6],1 (Class 1: The value of percent of control at 10^−7 M was less than 40% or the value of IC50 was less than 50 nM.)
"CN(C)c1cc(N[C@H]2CC[C@@H](NC(=O)c3ccc(-c4cccc([N+](=O)[O-])c4)o3)CC2)nc2ccccc12 [compound 763, N-(cis-4-{[4-(dimethylamino)quinolin-2-yl]amino}cyclohexyl)-5-(3-nitrophenyl)-2-furamide]",class,[2],1 (Class 1: The value of percent of control at 10^−7 M was less than 40% or the value of IC50 was less than 50 nM.)
CN(C)c1ccnc(N[C@H]2CC[C@@H](CNC(=O)Nc3cc(F)cc(F)c3)CC2)n1 [compound 2449],class,[6],1 (Class 1: The value of percent of control at 10^−7 M was less than 40% or the value of IC50 was less than 50 nM.)
CN(C)c1nc(N[C@H]2CC[C@@H](CNC(=O)C(c3ccc(Cl)cc3)c3ccc(Cl)cc3)CC2)nc2c1CCCC2 [compound 1073],class,[5],3 (Class 3 The value of percent of control at 10^−7 M was more than 60% or the value of IC50 was more than 200 nM.)
"Cc1nc(N[C@H]2CC[C@@H](NC(=O)c3ccc(OC(F)(F)F)cc3)CC2)nc(N(C)C)c1C [compound 2843, N-(cis-4-{[4-(dimethylamino)-5,6-dimethylpyrimidin-2-yl]amino}cyclohexyl)-4-(trifluoromethoxy)benzamide]",class,[4],2 (Class 2: The value of percent of control at 10^−7 M was from 40% to 60% or the value of IC′50 was from 50 nM to 200 nM.)
CC(=O)c1cccc(C(=O)N[C@H]2CC[C@@H](Nc3nc4c(c(N(C)C)n3)CCCC4)CC2)c1 [compound 968],class,[2],1 (Class 1: The value of percent of control at 10^−7 M was less than 40% or the value of IC50 was less than 50 nM.)
"CN(C)c1cc(N[C@H]2CC[C@@H](NC(=O)c3ccc([N+](=O)[O-])cc3)CC2)nc2ccccc12 [compound 770, N-(cis-4-{[4-(dimethylamino)quinolin-2-yl]amino}cyclohexyl)-4-nitrobenzamide]",class,[2],1 (Class 1: The value of percent of control at 10^−7 M was less than 40% or the value of IC50 was less than 50 nM.)
CN(C)c1cc(N[C@H]2CC[C@@H](NC(=O)Nc3ccccc3[N+](=O)[O-])CC2)nc2ccccc12 [compound 2147],class,[2],3 (Class 3 The value of percent of control at 10^−7 M was more than 60% or the value of IC50 was more than 200 nM.)
CC(C)S(=O)(=O)c1csc(C(=O)N[C@H]2CC[C@@H](Nc3cc(N(C)C)c4ccccc4n3)CC2)c1Cl [compound 101],class,[3],3 (Class 3 The value of percent of control at 10^−7 M was more than 60% or the value of IC50 was more than 200 nM.)
CN(C)c1nc(N[C@H]2CC[C@@H](NC(=S)Nc3ccc([N+](=O)[O-])cc3Cl)CC2)nc2c1CCCC2 [compound 1975],class,[3],3 (Class 3 The value of percent of control at 10^−7 M was more than 60% or the value of IC50 was more than 200 nM.)
CN(C)c1cc(N[C@H]2CC[C@@H](CNC(=O)c3c(Cl)cccc3Cl)CC2)nc2ccccc12 [compound 221],class,[2],2 (Class 2: The value of percent of control at 10^−7 M was from 40% to 60% or the value of IC′50 was from 50 nM to 200 nM.)
CCOC(=O)NC[C@H]1CC[C@@H](Nc2nccc(N(C)C)n2)CC1 [compound 1647],class,activity class 1-3: percent of control at 10^-7 M or IC50,3 (Class 3 The value of percent of control at 10^−7 M was more than 60% or the value of IC50 was more than 200 nM.)
